Laboratory results reported in patent publication US20170057910A1, “ANTITUMOR NAPHTHALENYL BENZAMIDE DERIVATIVES” (THE CLEVELAND CLINIC FOUNDATION, priority 2015, published 2017).
Entries after “also recorded” stand apart in the source; their conditions may differ.

Assays:
[1] = test system: 5TGM1-luc cells; assay: Immunocompetent systemic mouse myeloma model (5TGM1-luc); type: in vivo; conditions: for anti-MM activity in vivo (imaging, time to death or euthanasia): albumin-based solutions, CCF642 IV then IP 1-12 mg/kg, CCF1172 IP three times a week 22 then 44 mg/kg; for adverse events by clinical observations and weekly weight measurements: three times a week clinical observations, increasing doses
Procedure: C57BL/KaLwRij mice were injected with 4×10^6 5 TGM1-luc cells per mouse via the tail vein. The next day, treatments were started. Compounds were diluted from DMSO stock into aqueous bovine serum albumin (Sigma, cat. # A7030) solution, supplemented, after compound addition, with NaCl to a final NaCl concentration of 150 mM. In this pilot experiment we aimed to evaluate general tolerance and activity using increasing doses. CCF642 was given in 10% BSA IV twice a week for the first three weeks followed by IP three times a week. IV doses started with 1 mg/kg (3% DMSO) and increased by 1 mg/kg per week (6% DMSO in the second and 10% DMSO in the third week). IP doses started with 6 mg/kg in week 4 and from week 5 onwards used 12 mg/kg (10% DMSO in both). CCF1172 (obtained from SPECS) was given IP three times a week, 22 mg/kg in the first two weeks, then 44 mg/kg (10% BSA, 10% DMSO).

[2] = Three organ system sandwich assay, normal bone marrow viability by trypan blue exclusion; type: cell-based; conditions: human, read-out: reduction of viable NLBM cells
Description: (§1) FIG. 1A, FIG. 1B, and FIG. 1C provide a scheme showing a sandwich three organ system assay, structures of lead compounds, and a graph of cell viability. Development of the three organ system sandwich assay yields structurally distinct promising anti-myeloma compounds. (a) To address the objective of identifying new clinically translatable treatments for the incurable cancer multiple myeloma (MM) that disrupt critical programs for this malignancy while sparing normal bone marrow, the inventors submitted hits from a mechanistically unbiased primary anti-MM screen to tests that modeled key components of the in vivo situation, initially separately, then in one multi-layered sandwich assay, followed by assessment of anti-MM activity in a panel of genetically heterogeneous MM cell lines.
(§2) Sandwich assay: HS-5 bone marrow stromal cells which secrete hematopoietic growth factors including multiple myeloma (MM) supporting IL-6 are grown to confluence on Transwell™ inserts before firefly luciferase expressing MM1.S cells are added and incubated overnight. […] Three to four days later MM luciferase activity is measured and viability of NL BM, constantly drug exposed for maximal stringency, is assessed by trypan blue exclusion using Vicell™ flow.

[3] = test system: lymphoma cell lines; assay: Activity in lymphoma cell lines; type: cell-based; conditions: 6 of 7 lymphoma cell lines
Description: Cell lines: Multiple myeloma cell lines MM1.S, MM1.R, NCI-H929 were obtained from ATCC. MM cell lines KMS-12-PE and KMS-12-BM were from the JCRB, JJN-3 from DSMZ, and 5TGM1-luc cells were from Dr. Yoneda at the University of Texas Health Science at San Antonio. HRMM.09 cells were generated in the inventor's lab from a patient who developed refractory myeloma after treatment with steroids, IMiD, proteasome inhibitors, DNA alkylators, and anthracyclines. MM1.S-luc and HRMM.09-luc were generated in the inventor's laboratory by transduction with Cignal™ firefly luciferase control lentivirus obtained from Qiagen™ Lymphoma cells were generated by Mitchell Smith. All MM and lymphoma cells were grown in RPMI 1640 (NaCl 103.45 mM, NaCO3 23.81 mM, Na2HPO4 5.63 mM, KCl 5.33 mM, Ca(NO3)2 4H2O 0.424 mM, MgSO4 0.407 mM, pH around 7.2), supplemented with 10% fetal bovine serum, penicillin G (50 units ml^−1), and streptomycin (50 μM ml^−1). HS-5 cells were grown in appropriate cell culture media. Normal bone marrow cells were obtained from discarded bags of bone marrow grafts from healthy donors and either kept in RPMI with 25% (v/v) HS-5 supernatant for up to 14 days for isolated cytotoxicity assays or frozen and thawed for the sandwich assay. All cells were cultured at 37° C., 5% CO2 in humidified air. […]

[4] = test system: MM cell lines; assay: Anti-MM activity in a panel of genetically heterogeneous MM cell lines; type: cell-based
Description: Cell lines: Multiple myeloma cell lines MM1.S, MM1.R, NCI-H929 were obtained from ATCC. MM cell lines KMS-12-PE and KMS-12-BM were from the JCRB, JJN-3 from DSMZ, and 5TGM1-luc cells were from Dr. Yoneda at the University of Texas Health Science at San Antonio. HRMM.09 cells were generated in the inventor's lab from a patient who developed refractory myeloma after treatment with steroids, IMiD, proteasome inhibitors, DNA alkylators, and anthracyclines. MM1.S-luc and HRMM.09-luc were generated in the inventor's laboratory by transduction with Cignal™ firefly luciferase control lentivirus obtained from Qiagen™ Lymphoma cells were generated by Mitchell Smith. All MM and lymphoma cells were grown in RPMI 1640 (NaCl 103.45 mM, NaCO3 23.81 mM, Na2HPO4 5.63 mM, KCl 5.33 mM, Ca(NO3)2 4H2O 0.424 mM, MgSO4 0.407 mM, pH around 7.2), supplemented with 10% fetal bovine serum, penicillin G (50 units ml^−1), and streptomycin (50 μM ml^−1). HS-5 cells were grown in appropriate cell culture media. Normal bone marrow cells were obtained from discarded bags of bone marrow grafts from healthy donors and either kept in RPMI with 25% (v/v) HS-5 supernatant for up to 14 days for isolated cytotoxicity assays or frozen and thawed for the sandwich assay. All cells were cultured at 37° C., 5% CO2 in humidified air.
Taking a mechanistically unbiased approach to drug discovery the inventors developed a sandwich assay that selected anti-MM compounds from a primary ATP-based 30,000 small molecule screen for lack of toxicity on normal bone marrow, stability towards liver enzymes, and activity in the context of cell barriers, bone marrow stromal support, and short, kidney-clearance-like exposure. CCF1172 emerged as one of three promising compounds and had sub-μM IC50 potency in all 8 MM cells tested and 6 of 7 lymphoma cell lines.

[5] = test system: MM1.S-luc; assay: Three organ system sandwich assay, MM luciferase activity; type: cell-based
Description: as §1, §2

[6] = test system: refractory myeloma; conditions: cited from earlier work

Row | Compound | anti-MM activity in vivo (imaging, time to death or euthanasia) [1] | adverse events by clinical observations and weekly weight measurements [1] | cytotoxicity at 15 μM [2] [%] | IC50 potency in lymphoma cell lines [3] | potency in the MM cell line panel compared with CCF642 and CCF1118 ([4]; MM cell line panel) | IC50 potency in MM cells ([4]; all 8 MM cells tested) | activity against genetically heterogenous MM cell lines ([4]; seven MM cell lines) | effectiveness in the sandwich assay compared with CCF642 and CCF1118 [5] | reduction of MM1.S-luc luminescence ([5]; 15 μM) | overall response rate ([6]; single agent, refractory myeloma patients) | survival relative to expected survival ([6]; two phase studies, patients with refractory myeloma)
1 | COc1ccc(N2C(=O)/C(=C\c3ccc([N+](=O)[O-])s3)SC2=S)cc1 [CCF642, reference compound] | had anti-MM activity | No obvious adverse events |  |  |  |  |  |  |  |  | 
2 | O=C(Nc1cccc2ccccc12)c1cc(Cl)ccc1O [CCF1172] | demonstrated in vivo activity; also recorded: had anti-MM activity | No obvious adverse events | < 30 | sub-μM | less potent | sub-μM | uniform activity | equally effective | 70-80% |  | 
3 | Daratumumab: the first anti-CD38 antibody for use in myeloma |  |  |  |  |  |  |  |  |  | about 30% | over twice of expected survival
